# Assay results as given in US10501479B2, “Benzenesulfonyl-asymmetric ureas and medical uses thereof” (HELSINN HEALTHCARE SA, priority 2016, dated 2019).
# Like-named read-outs stand apart in the source and are kept apart here.
# Experiments:
# Type in all cases: cell-based
# [1] = target: T1, recombinant human ghrelin receptor (HEK293/GRLN) (Homo sapiens, UniProt Q92847); assay: Ghrelin inverse agonist potency (EC50) with IP-1 (IP-One HTRF) assay; details: IP-1 assay
# T1 construct: expressed in transfected cells
# How it was run: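 HEK293/GRLN cells were seeded 18-22 hours before the test, then exposed to compound in stimulation buffer for 1 hour at 37° C, 5% CO2. IP-1 was detected by IP-One HTRF (IP1-d2 plus Tb-cryptate, 1 hour RT), reading 620 and 665 nm; the inverse agonist EC50 was derived from this.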
# [2] = target: T2, GHSR-1a (HEK293/GHSR1a cell line) (Homo sapiens, UniProt Q92847); assay: Ghrelin agonist potency (EC50) with calcium FLIPR assay; details: for EC50: HEK293/GHSR1a, read-out: Activity EC50/EMax: EC50 (ghrelin agonist potency)
# T2 construct: expressed in transfected cells; host or cells: HEK293/GHSR1a cell line
# Experimental: Evaluation of Ghrelin Agonist (EC50) and Antagonist Potency (IC50) with Calcium FLIPR Assay:
# The intracellular calcium assay was carried out in a 384-well format FLIPR™ (Molecular Device) HEK293/GHSR1a cell line. Cells were seeded 24 hr prior to the experiments at an optimal density per well. Preincubation with selected calcium dye lasted for 30-60 min at room temperature or 37° C. Test compounds, dissolved in DMSO, were added at the appropriate time and incubated for 15 min followed by the addition of ghrelin with FlexStation or FLIPR. Relative fluorescence was monitored by the FLIPR™ Molecular Device. EC50 and IC50 values were estimated from dose-response data using GraphPad Prism software. To check for GHSR-1a agonism, the compound was added at t=20 sec. and the calcium response was followed for 2 minutes. To check for GHSR-1a antagonism, the compound and Ghrelin (10 nM) were added to the cells at t=20 sec. and the calcium response was measured for 2 minutes. The potency of the antagonist was calculated by its ability to reduce the ghrelin response. Dose-response curves were made for relevant antagonists.
# [3] = target: T2, GHSR-1a (HEK293/GHSR1a cell line); assay: Ghrelin antagonist potency (IC50) with calcium FLIPR assay, ghrelin 10 nM
# How it was run: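 Potency values were estimated from dose-response curves of relative fluorescence, with calcium followed for 2 minutes after additions at t=20 sec. Agonism was tested with compound alone. Antagonism was tested with compound plus 10 nM ghrelin and scored as a reduction of the ghrelin signal.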
# [4] = HEK293/GRLN, read-out: Activity EC50 (ghrelin inverse agonist potency)
# [5] = HEK293/GHSR1a, ghrelin 10 nM, read-out: Activity IC50 (ghrelin antagonist potency)
# T2 sequence (Q92847 whole entry): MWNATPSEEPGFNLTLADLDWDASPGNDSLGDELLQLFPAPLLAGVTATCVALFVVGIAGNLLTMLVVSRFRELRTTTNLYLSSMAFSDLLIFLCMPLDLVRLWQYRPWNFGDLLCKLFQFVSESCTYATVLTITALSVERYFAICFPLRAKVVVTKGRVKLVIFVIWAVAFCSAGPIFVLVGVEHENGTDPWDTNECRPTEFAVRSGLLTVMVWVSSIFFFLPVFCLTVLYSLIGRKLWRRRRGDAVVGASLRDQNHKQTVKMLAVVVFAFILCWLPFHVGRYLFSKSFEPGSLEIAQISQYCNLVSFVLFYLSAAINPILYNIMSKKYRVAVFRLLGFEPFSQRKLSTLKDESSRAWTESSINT
# T1 sequence (Q92847 whole entry): as above
SMILES,"EC50 ([1]; inverse agonist potency, read-out: EC50 (Activity))",EC50/EMax: EC50 (Activity) ([2]; ghrelin agonist potency),"IC50 ([3]; ghrelin antagonist potency, read-out: IC50 (Activity))","EC50 [1, 4]",EC50 [2],"IC50 [3, 5]"
"C[C@H](NC(=O)Nc1ccc(S(=O)(=O)Nc2ccc3[nH]cnc3c2)cc1)c1cccc(Cl)c1Cl [H1111, (S)-N-(1H-benzo[d]imidazol-5-yl)-4-(3-(1-(2,3-dichlorophenyl)ethyl)ureido) benzenesulfonamide]",1230 nM,> 30 µM,2250 nM,,,
"CC(NC(=O)Nc1ccc(S(=O)(=O)Cc2ccc3c(c2)CNC3)cc1)c1cccnc1 (stereo not drawn) [H1273, 1-(4-((isoindolin-5-ylmethyl)sulfonyl)phenyl)-3-(1-(pyridin-3-yl)ethyl)urea]",,,,192 nM,> 30 µM,1030 nM
"CC(NC(=O)Nc1ccc(S(=O)(=O)Cc2ccc3c(c2)CNC3)cc1)c1ccncc1 (stereo not drawn) [H1274, 1-(4-((isoindolin-5-ylmethyl)sulfonyl)phenyl)-3-(1-(pyridin-4-yl)ethyl)urea]",,,,685 nM,> 30 µM,1580 nM
"CC(NC(=O)Nc1ccc(S(=O)(=O)Cc2ccc(CN3CCOCC3)cc2)cc1)c1ccccc1 (stereo not drawn) [H1275, 1-(4-((4-(morpholinomethyl)benzyl)sulfonyl)phenyl)-3-(1-phenylethyl)urea]",,,,310 nM,> 30 µM,1020 nM
"CC(NC(=O)Nc1ccc(S(=O)(=O)Cc2ccc3c(c2)CNC3)cc1)c1cc(N2CCOCC2)ccc1Cl (stereo not drawn) [H1283, 1-(1-(2-chloro-5-morpholinophenyl)ethyl)-3-(4-((isoindolin-5-ylmethyl)sulfonyl)phenyl)urea]",,,,201 nM,> 30 µM,379 nM
"CC(NC(=O)Nc1ccc(S(=O)(=O)Cc2ccc3c(c2)CN(C)C3)cc1)c1cc(N2CCOCC2)ccc1Cl (stereo not drawn) [H1284, 1-(1-(2-chloro-5-morpholinophenyl)ethyl)-3-(4-(((2-methylisoindolin-5-yl)methyl)sulfonyl)phenyl)urea]",,,,371 nM,> 30 µM,1900 nM
"CC(NC(=O)Nc1ccc(S(=O)(=O)Cc2ccc3c(c2)CNC3)cc1)c1ccccn1 (stereo not drawn) [H1289, 1-(4-((isoindolin-5-ylmethyl)sulfonyl)phenyl)-3-(1-(pyridin-2-yl)ethyl)urea]",,,,161 nM,0.147 µM,542 nM
"CC(NC(=O)Nc1ccc(S(=O)(=O)Cc2cccc(CN)c2)cc1)c1ccccc1 (stereo not drawn) [H1290, 1-(4-((3-(aminomethyl)benzyl)sulfonyl)phenyl)-3-(1-phenylethyl)urea]",,,,722 nM,> 30 µM,3410 nM
"CC(NC(=O)Nc1ccc(S(=O)(=O)Cc2ccc3c(c2)C(=O)NC3)cc1)c1ccccc1 (stereo not drawn) [H1291, 1-(4-(((3-oxoisoindolin-5-yl)methyl)sulfonyl)phenyl)-3-(1-phenylethyl)urea]",,,,468 nM,> 30 µM,1200 nM
"CC(NC(=O)Nc1ccc(S(=O)(=O)Cc2ccc3c(c2)C(O)CC3)cc1)c1ccccc1 (stereo not drawn) [H1293, 1-(4-(((3-hydroxy-2,3-dihydro-1H-inden-5-yl)methyl)sulfonyl)phenyl)-3-(1-phenylethyl)urea]",,,,930 nM,> 30 µM,5680 nM
"COc1ccc(C(C)NC(=O)Nc2ccc3c(c2)C=C(c2ccc4c(c2)CN(Cc2ccccc2)C4)S3(=O)=O)cc1 (stereo not drawn) [H1296, 1-(2-(2-benzylisoindolin-5-yl)-1,1-dioxidobenzo[b]thiophen-5-yl)-3-(1-(4-methoxyphenyl)ethyl)urea]",,,,4920 nM,13.2 µM,> 30000 nM
"COc1ccc(C(C)NC(=O)Nc2ccc(S(=O)(=O)Cc3ccc4c(c3)CNC4)cc2)cc1 (stereo not drawn) [H1298, 1-(4-((isoindolin-5-ylmethyl)sulfonyl)phenyl)-3-(1-(4-methoxyphenyl)ethyl)urea]",,,,115 nM,> 30 µM,506 nM
"O=C(NCc1cccnc1)Nc1ccc(S(=O)(=O)Cc2ccc3c(c2)CNC3)cc1 [H1301, 1-(4-((isoindolin-5-ylmethyl)sulfonyl)phenyl)-3-(pyridin-3-ylmethyl)urea]",,,,1140 nM,> 30 µM,4450 nM
"C[C@H](NC(=O)Nc1ccc(S(=O)(=O)CC2CCNCC2)cc1)c1ccccc1 [H1303, (S)-1-(1-phenylethyl)-3-(4-((piperidin-4-ylmethyl)sulfonyl)phenyl)urea]",,,,> 30000 nM,> 30 µM,> 30000 nM
"CCN(CC)Cc1ccc(CS(=O)(=O)c2ccc(NC(=O)NC(C)c3ccccc3)cc2)cc1 (stereo not drawn) [H1304, 1-(4-((4-((diethylamino)methyl)benzyl)sulfonyl)phenyl)-3-(1-phenylethyl)urea]",,,,182 nM,> 30 µM,145 nM
"CC(NC(=O)Nc1ccc(S(=O)(=O)Cc2ccc3c(c2)CN(C)C3)cc1)c1ccccn1 (stereo not drawn) [H1307, 1-(4-(((2-methylisoindolin-yl)methyl)sulfonyl)phenyl)-3-(1-(pyridin-2-yl)ethyl)urea]",,,,935 nM,> 30 µM,2300 nM
"CC(NC(=O)Nc1ccc(S(=O)(=O)Cc2ccc3c(c2)CN(C)C3)cc1)c1cncnc1 (stereo not drawn) [H1309, 1-(4-(((2-methylisoindolin-5-yl)methyl)sulfonyl)phenyl)-3-(1-(pyrimidin-5-yl)ethyl)urea]",,,,1840 nM,> 30 µM,4500 nM
"CC(=O)Oc1ccc(C(C)NC(=O)Nc2ccc(S(=O)(=O)Cc3ccc4c(c3)CNC4)cc2)cc1 (stereo not drawn) [H1310, 4-(1-(3-(4-((isoindolin-5-ylmethyl)sulfonyl)phenyl)ureido)ethyl)phenylacetate]",,,,184 nM,> 30 µM,262 nM
"CC(NC(=O)Nc1ccc(S(=O)(=O)Cc2ccc3c(c2)CNC3)cc1F)c1ccccc1 (stereo not drawn) [H1316, 1-(2-fluoro-4-((isoindolin-5-ylmethyl)sulfonyl)phenyl)-3-(1-phenylethyl)urea]",,,,11.6 nM,> 30 µM,30.9 nM
"CC(NC(=O)Nc1ccc(S(=O)(=O)Cc2cc3c(s2)CNC3)cc1)c1ccccc1 (stereo not drawn) [H1320, 1-(4-(((5,6-dihydro-4H-thieno[2,3-c]pyrrol-2-yl)methyl)sulfonyl)phenyl)-3-(1-phenylethyl)urea]",,,,43.3 nM,> 30 µM,58.4 nM
"O=C(Nc1ccc(S(=O)(=O)Cc2ccc3c(c2)CNC3)cc1)NC1COc2ccccc21 (stereo not drawn) [H1330, 1-(2,3-dihydrobenzofuran-3-yl)-3-(4-((isoindolin-5-ylmethyl)sulfonyl)phenyl)urea]",,,,142 nM,> 30 µM,147 nM
"CN1Cc2ccc(CS(=O)(=O)c3ccc(NC(=O)NC4COc5ccccc54)cc3)cc2C1 (stereo not drawn) [H1331, 1-(2,3-dihydrobenzofuran-3-yl)-3-(4-(((2-methylisoindolin-5-yl)methyl)sulfonyl)phenyl)urea]",,,,130 nM,> 30 µM,213 nM
"C[C@@H](NC(=O)Nc1ccc(S(=O)(=O)Cc2ccc(C3CCCN3)cc2)cc1)c1ccccc1 (stereo partly drawn) [H1332, 1-((R)-1-phenylethyl)-3-(4-((4-(pyrrolidin-2-yl)benzyl)sulfonyl)phenyl)urea]",,,,42.1 nM,> 30 µM,73.2 nM
"CN1Cc2ccc(CS(=O)(=O)c3ccc(NC(=O)N[C@H]4CCCc5ccccc54)cc3)cc2C1 [H1335, (S)-1-(4-(((2-methylisoindolin-5-yl)methyl)sulfonyl)phenyl)-3-(1,2,3,4-tetrahydronaphthalen-1-yl)urea]",,,,69.9 nM,> 30 µM,133 nM
